Data published in patent publication US11104674B2 (Hoffmann-La Roche Inc., priority 2016, dated 2021).

What follows are compounds tested on HBsAg (assay: HBsAg assay (chemiluminescence immunoassay of secreted HBsAg)). Settings: Hepatitis B virus, HepG2.2.15, HBsAg secretion, HepG2.2.15 cells, CLIA of culture supernatant.
Assay type: cell-based, HBV
Method in brief: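 HepG2.2.15 cells, in duplicate, treated with three-fold serial compound dilutions (1% DMSO final); secreted HBsAg in supernatant quantified by chemiluminescence immunoassay; IC50 is the concentration reducing HBsAg secretion by 50% versus the DMSO control.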

Compound | IC50
CC1c2cnc(-c3ncccn3)nc2CCN1c1cc(N2C3CCC2COC3)cc(F)n1 (centres unmarked) [Example 10, 8-[2-fluoro-6-(5-methyl-2-pyrimidin-2-yl-7,8-dihydro-5H-pyrido[4,3-d]pyrimidin-6-yl)-4-pyridyl]-3-oxa-8-azabicyclo[3.2.1]octane] | 39 nM
CC1c2cnc(-c3ncccn3)nc2CCN1c1cc(F)cc(N(C)CCCCC(N)=O)n1 (centres unmarked) [Example 142, 5-[[4-fluoro-6-(5-methyl-2-pyrimidin-2-yl-7,8-dihydro-5H-pyrido[4,3-d]pyrimidin-6-yl)-2-pyridyl]-methyl-amino]pentanamide] | 25 nM
CC1c2cnc(-c3ncccn3)nc2CCN1c1cc(N2CCN(S(C)(=O)=O)C(C)C2)cc(F)n1 (centres unmarked) [Example 106, 6-[6-fluoro-4-(3-methyl-4-methylsulfonyl-piperazin-1-yl)-2-pyridyl]-5-methyl-2-pyrimidin-2-yl-7,8-dihydro-5H-pyrido[4,3-d]pyrimidine] | 7 nM
CC1c2cnc(-c3ncccn3)nc2CCN1c1cc(N2CC(C)(C)OC2=O)cc(F)n1 (centres unmarked) [Example 114, 3-[2-Fluoro-6-(5-methyl-2-pyrimidin-2-yl-7,8-dihydro-5H-pyrido[4,3-d]pyrimidin-6-yl)-4-pyridyl]-5,5-dimethyl-oxazolidin-2-one] | 8 nM
CCC1CN(c2cc(F)cc(N3CCc4nc(-c5ncccn5)ncc4C3C)n2)CCO1 (centres unmarked) [Example 7, 2-ethyl-4-[4-fluoro-6-(5-methyl-2-pyrimidin-2-yl-7,8-dihydro-5H-pyrido[4,3-d]pyrimidin-6-yl)-2-pyridyl]morpholine] | 42 nM
CC1c2cnc(-c3ccccn3)nc2CCN1c1cc(F)cc(N2CCC(C(=O)O)C2)n1 (centres unmarked) [Example 67, 1-[4-fluoro-6-[5-methyl-2-(2-pyridyl)-7,8-dihydro-5H-pyrido[4,3-d]pyrimidin-6-yl]-2-pyridyl]pyrrolidine-3-carboxylic acid] | 532 nM
CC1c2cnc(-c3ncccn3)nc2CCN1c1cc(N2CC(CO)CC2=O)cc(F)n1 (centres unmarked) [Example 153, 1-[2-Fluoro-6-(5-methyl-2-pyrimidin-2-yl-7,8-dihydro-5H-pyrido[4,3-d]pyrimidin-6-yl)-4-pyridyl]-4-(hydroxymethyl)pyrrolidin-2-one] | 32 nM
CC1c2cnc(-c3ncccn3)nc2CCN1c1cc(F)cc(N2CC(C(N)=O)C2)n1 (centres unmarked) [Example 81, 1-[4-fluoro-6-(5-methyl-2-pyrimidin-2-yl-7,8-dihydro-5H-pyrido[4,3-d]pyrimidin-6-yl)-2-pyridyl]azetidine-3-carboxamide] | 206 nM
CC1c2cnc(-c3ncccn3)nc2CCN1c1cc(NS(=O)(=O)c2ccccc2)cc(F)n1 (centres unmarked) [Example 77, N-[2-fluoro-6-(5-methyl-2-pyrimidin-2-yl-7,8-dihydro-5H-pyrido[4,3-d]pyrimidin-6-yl)-4-pyridyl]benzenesulfonamide] | 554 nM
CC1c2cnc(-c3ncccn3)nc2CCN1c1cc(NCCCCCC(=O)O)cc(F)n1 (centres unmarked) [Example 1, 6-[[2-fluoro-6-(5-methyl-2-pyrimidin-2-yl-7,8-dihydro-5H-pyrido[4,3-d]pyrimidin-6-yl)-4-pyridyl]amino]hexanoic acid] | 1500 nM
CC1CCN(c2cc(F)nc(N3CCc4nc(-c5ncccn5)ncc4C3C)c2)C1 (centres unmarked) [Example 18, 6-[6-fluoro-4-(3-methylpyrrolidin-1-yl)-2-pyridyl]-5-methyl-2-pyrimidin-2-yl-7,8-dihydro-5H-pyrido[4,3-d]pyrimidine] | 3 nM
CC1CN(c2cc(F)nc(N3CCc4nc(-c5ncccn5)ncc4C3C)c2)CC(=O)N1 (centres unmarked) [Example 134, 4-[2-fluoro-6-(5-methyl-2-pyrimidin-2-yl-7,8-dihydro-5H-pyrido[4,3-d]pyrimidin-6-yl)-4-pyridyl]-6-methyl-piperazin-2-one] | 15 nM
CC1c2cnc(-c3ccccn3)nc2CCN1c1cc(N2CCC(C(=O)O)C2)cc(F)n1 (centres unmarked) [Example 68, 1-[2-fluoro-6-[5-methyl-2-(2-pyridyl)-7,8-dihydro-5H-pyrido[4,3-d]pyrimidin-6-yl]-4-pyridyl]pyrrolidine-3-carboxylic acid] | 215 nM
CC1c2cnc(-c3ncccn3)nc2CCN1c1cc(NC2CCS(=O)(=O)CC2)cc(F)n1 (centres unmarked) [Example 138, N-(1,1-dioxothian-4-yl)-2-fluoro-6-(5-methyl-2-pyrimidin-2-yl-7,8-dihydro-5H-pyrido[4,3-d]pyrimidin-6-yl)pyridin-4-amine] | 663 nM
CC1c2cnc(-c3ncccn3)nc2CCN1c1cc(N2CCC(C(=O)O)CC2)cc(F)n1 (centres unmarked) [Example 52, 1-[2-fluoro-6-(5-methyl-2-pyrimidin-2-yl-7,8-dihydro-5H-pyrido[4,3-d]pyrimidin-6-yl)-4-pyridyl]piperidine-4-carboxylic acid] | 1040 nM
CC1c2cnc(-c3ncccn3)nc2CCN1c1cc(F)cc(N2CCC(C(=O)NS(C)(=O)=O)CC2)n1 (centres unmarked) [Example 65, 1-[4-fluoro-6-(5-methyl-2-pyrimidin-2-yl-7,8-dihydro-5H-pyrido[4,3-d]pyrimidin-6-yl)-2-pyridyl]-N-methylsulfonyl-piperidine-4-carboxamide] | 4440 nM

Compound | IC50
CC1c2cnc(-c3ncccn3)nc2CCN1c1cc(N2CC(C(=O)O)C2)cc(F)n1 (centres unmarked) [Example 54, 1-[2-fluoro-6-(5-methyl-2-pyrimidin-2-yl-7,8-dihydro-5H-pyrido[4,3-d]pyrimidin-6-yl)-4-pyridyl]azetidine-3-carboxylic acid] | 6340 nM
COCC1CN(c2cc(F)nc(N3CCc4nc(-c5ncccn5)ncc4C3C)c2)CCO1 (centres unmarked) [Example 14, 4-[2-fluoro-6-(5-methyl-2-pyrimidin-2-yl-7,8-dihydro-5H-pyrido[4,3-d]pyrimidin-6-yl)-4-pyridyl]-2-(methoxymethyl)morpholine] | 17 nM
CC1c2cnc(-c3ncccn3)nc2CCN1c1cc(N2CC(C(=O)NS(C)(=O)=O)C2)cc(F)n1 (centres unmarked) [Example 64, 1-[2-fluoro-6-(5-methyl-2-pyrimidin-2-yl-7,8-dihydro-5H-pyrido[4,3-d]pyrimidin-6-yl)-4-pyridyl]-N-methylsulfonyl-azetidine-3-carboxamide] | 2380 nM
CC1c2cnc(-c3ncccn3)nc2CCN1c1cc(N2CC3(COC3)CC2=O)cc(F)n1 (centres unmarked) [Example 151, 7-[2-Fluoro-6-(5-methyl-2-pyrimidin-2-yl-7,8-dihydro-5H-pyrido[4,3-d]pyrimidin-6-yl)-4-pyridyl]-2-oxa-7-azaspiro[3.4]octan-6-one] | 27 nM
CC1c2cnc(-c3ncccn3)nc2CCN1c1cc(F)cc(NC2CCOCC2)n1 (centres unmarked) [Example 49, 4-fluoro-6-(5-methyl-2-pyrimidin-2-yl-7,8-dihydro-5H-pyrido[4,3-d]pyrimidin-6-yl)-N-tetrahydropyran-4-yl-pyridin-2-amine] | 56 nM
CC1c2cnc(-c3ncccn3)nc2CCN1c1cc(F)nc(N2CCN(S(C)(=O)=O)CC2)c1 (centres unmarked) [Example 107, 6-[2-Fluoro-6-(4-methylsulfonylpiperazin-1-yl)-4-pyridyl]-5-methyl-2-pyrimidin-2-yl-7,8-dihydro-5H-pyrido[4,3-d]pyrimidine] | 10 nM
CC1c2cnc(-c3ncccn3)nc2CCN1c1cc(N(C)C(=O)c2ccccc2)cc(F)n1 (centres unmarked) [Example 163, N-[2-Fluoro-6-(5-methyl-2-pyrimidin-2-yl-7,8-dihydro-5H-pyrido[4,3-d]pyrimidin-6-yl)-4-pyridyl]-N-methyl-benzamide] | 91 nM
CC1c2cnc(-c3ncccn3)nc2CCN1c1cc(N(C)S(=O)(=O)c2ccccc2)cc(F)n1 (centres unmarked) [Example 161, N-[2-Fluoro-6-(5-methyl-2-pyrimidin-2-yl-7,8-dihydro-5H-pyrido[4,3-d]pyrimidin-6-yl)-4-pyridyl]-N-methyl-benzenesulfonamide] | 5 nM
CC1c2cnc(-c3ncccn3)nc2CCN1c1cc(N2CCN(S(C)(=O)=O)CC2)cc(F)n1 (centres unmarked) [Example 58, 6-[6-fluoro-4-(4-methylsulfonylpiperazin-1-yl)-2-pyridyl]-5-methyl-2-pyrimidin-2-yl-7,8-dihydro-5H-pyrido[4,3-d]pyrimidine] | 15 nM
CC1c2cnc(-c3ncccn3)nc2CCN1c1cc(N2CCN(S(C)(=O)=O)CC2=O)cc(F)n1 (centres unmarked) [Example 128, 1-[2-Fluoro-6-(5-methyl-2-pyrimidin-2-yl-7,8-dihydro-5H-pyrido[4,3-d]pyrimidin-6-yl)-4-pyridyl]-4-methylsulfonyl-piperazin-2-one] | 417 nM
CCS(=O)(=O)N1CCN(c2cc(F)cc(N3CCc4nc(-c5ncccn5)ncc4C3C)n2)CC1 (centres unmarked) [Example 91, 6-[6-(4-ethylsulfonylpiperazin-1-yl)-4-fluoro-2-pyridyl]-5-methyl-2-pyrimidin-2-yl-7,8-dihydro-5H-pyrido[4,3-d]pyrimidine] | 12 nM
CC1C(=O)NCCN1c1cc(F)cc(N2CCc3nc(-c4ncccn4)ncc3C2C)n1 (centres unmarked) [Example 116, 4-[4-fluoro-6-(5-methyl-2-pyrimidin-2-yl-7,8-dihydro-5H-pyrido[4,3-d]pyrimidin-6-yl)-2-pyridyl]-3-methyl-piperazin-2-one] | 103 nM
CC1c2cnc(-c3ncccn3)nc2CCN1c1cc(NC2CCN(S(C)(=O)=O)CC2)cc(F)n1 (centres unmarked) [Example 96, 2-Fluoro-6-(5-methyl-2-pyrimidin-2-yl-7,8-dihydro-5H-pyrido[4,3-d]pyrimidin-6-yl)-N-(1-methylsulfonyl-4-piperidyl)pyridin-4-amine] | 125 nM
CC1c2cnc(-c3ncccn3)nc2CCN1c1cc(F)cc(N2CCCC2C(N)=O)n1 (centres unmarked) [Example 43, 1-[4-fluoro-6-(5-methyl-2-pyrimidin-2-yl-7,8-dihydro-5H-pyrido[4,3-d]pyrimidin-6-yl)-2-pyridyl]pyrrolidine-2-carboxamide] | 134 nM
CC1c2cnc(-c3ncccn3)nc2CCN1c1cc(N2CC(C(N)=O)C2)cc(F)n1 (centres unmarked) [Example 82, 1-[2-fluoro-6-(5-methyl-2-pyrimidin-2-yl-7,8-dihydro-5H-pyrido[4,3-d]pyrimidin-6-yl)-4-pyridyl]azetidine-3-carboxamide] | 149 nM
CC1c2cnc(-c3ncccn3)nc2CCN1c1cc(N2CCCC2CO)cc(F)n1 (centres unmarked) [Example 30, [1-[2-fluoro-6-(5-methyl-2-pyrimidin-2-yl-7,8-dihydro-5H-pyrido[4,3-d]pyrimidin-6-yl)-4-pyridyl]pyrrolidin-2-yl]methanol] | 7 nM
